Laboratory results taken from patent publication US20250215042A1, “MANNOSE-TARGETED COMPOSITIONS” (GENEVANT SCIENCES GMBH, priority 2022, published 2025).

Assays:
[1] = tested on: human CD14+ monocyte derived M2 macrophages; experiment: Binding of biotin-mannose/AF488-streptavidin complex to M2 macrophages (flow cytometry); type: cell-based; conditions: FIG. 2; for mannose ligand conjugated fluorescence (ligand binding): M2 macrophages, complex at 0.5, 0.1 and 0.02 μM, 4° C., 1.5 hours
[2] = tested on: human CD14+ monocyte derived M1 macrophages; experiment: Binding of biotin-mannose/AF488-streptavidin complex to M1 macrophages (flow cytometry); type: cell-based; conditions: for mannose ligand conjugated fluorescence (ligand binding): M1 macrophages, complex at 0.5, 0.1 and 0.02 μM, 4° C., 1.5 hours; for binding to M1 macrophages, tetra-, hexa- and octa-valent compared: FIG. 3
M1 macrophages = experiment: D-mannose competition with Cy3-tetra-mannose-siCD45 uptake in M1 macrophages; type: cell-based, human; conditions: competitor 139 mM, 5 minutes before conjugate 5 μg/mL, 1 hour; FIG. 5
Protocol: OptiMEM containing D-mannose or D-galactose was added onto testing cells to reach the final concentration of 139 mM and incubated at 37° C. for 5 minutes. […] The cells were then washed with PBS 3 times and fixed with 4% PFA for 10 minutes at room temperature. The chambers were removed from the slides and the cells were mounted with one drop of mounting media containing DAPI staining for the nuclei. The slides were covered, sealed and analyzed under fluorescent microscope.

O=C(CCCC[C@@H]1SC[C@@H]2NC(=O)N[C@@H]21)NCC(=O)Nc1cc(C(=O)NCCOCCOCCO[C@H]2O[C@H](CO)[C@@H](O)[C@H](O)[C@@H]2O)cc(C(=O)NCCOCCOCCO[C@H]2O[C@H](CO)[C@@H](O)[C@H](O)[C@@H]2O)c1 [Compound 35]
mannose ligand conjugated fluorescence (ligand binding) [1]: Dose dependent increase | mannose ligand conjugated fluorescence (ligand binding) ([2]; FIG. 2): Dose dependent increase

O=C(CC[C@H](NC(=O)CCCC[C@H]1SC[C@H]2NC(=O)N[C@H]21)C(=O)NCC(=O)Nc1cc(C(=O)NCCOCCOCCO[C@H]2O[C@H](CO)[C@@H](O)[C@H](O)[C@@H]2O)cc(C(=O)NCCOCCOCCO[C@H]2O[C@H](CO)[C@@H](O)[C@H](O)[C@@H]2O)c1)NCC(=O)Nc1cc(C(=O)NCCOCCOCCO[C@H]2O[C@H](CO)[C@@H](O)[C@H](O)[C@@H]2O)cc(C(=O)NCCOCCOCCO[C@H]2O[C@H](CO)[C@@H](O)[C@H](O)[C@@H]2O)c1 [Compound 36]
binding affinity ranked by valency (mono-, di-, tetra-valent) ([1]; M2 cells): highest binding affinity | mannose ligand conjugated fluorescence (ligand binding) [1]: Dose dependent increase | binding affinity ranked by valency (mono-, di-, tetra-valent) ([2]; M1 cells, FIG. 2): highest binding affinity | mannose ligand conjugated fluorescence (ligand binding) ([2]; FIG. 2): Dose dependent increase

O=C(CCC(CCC(=O)NCC(=O)Nc1cc(C(=O)NCCOCCOCCO[C@H]2O[C@H](CO)[C@@H](O)[C@H](O)[C@@H]2O)cc(C(=O)NCCOCCOCCO[C@H]2O[C@H](CO)[C@@H](O)[C@H](O)[C@@H]2O)c1)(CCC(=O)NCC(=O)Nc1cc(C(=O)NCCOCCOCCO[C@H]2O[C@H](CO)[C@@H](O)[C@H](O)[C@@H]2O)cc(C(=O)NCCOCCOCCO[C@H]2O[C@H](CO)[C@@H](O)[C@H](O)[C@@H]2O)c1)NC(=O)CCCC[C@H]1SC[C@@H]2NC(=O)N[C@@H]21)NCC(=O)Nc1cc(C(=O)NCCOCCOCCO[C@H]2O[C@H](CO)[C@@H](O)[C@H](O)[C@@H]2O)cc(C(=O)NCCOCCOCCO[C@H]2O[C@H](CO)[C@@H](O)[C@H](O)[C@@H]2O)c1 [Compound 37]
binding to M1 macrophages, tetra-, hexa- and octa-valent compared ([2]; listed as Hexavalent mannose ligand): further increased binding | binding to M1 macrophages, tetra-, hexa- and octa-valent compared ([2]; listed as hexavalent mannose): highest binding affinity to M1 macrophages

O=C(CC[C@H](NC(=O)CC[C@H](NC(=O)CCCC[C@@H]1SC[C@@H]2NC(=O)N[C@@H]21)C(=O)N[C@@H](CCC(=O)NCC(=O)Nc1cc(C(=O)NCCOCCOCCO[C@H]2O[C@H](CO)[C@@H](O)[C@H](O)[C@@H]2O)cc(C(=O)NCCOCCOCCO[C@H]2O[C@H](CO)[C@@H](O)[C@H](O)[C@@H]2O)c1)C(=O)NCC(=O)Nc1cc(C(=O)NCCOCCOCCO[C@H]2O[C@H](CO)[C@@H](O)[C@H](O)[C@@H]2O)cc(C(=O)NCCOCCOCCO[C@H]2O[C@H](CO)[C@@H](O)[C@H](O)[C@@H]2O)c1)C(=O)NCC(=O)Nc1cc(C(=O)NCCOCCOCCO[C@H]2O[C@H](CO)[C@@H](O)[C@H](O)[C@@H]2O)cc(C(=O)NCCOCCOCCO[C@H]2O[C@H](CO)[C@@H](O)[C@H](O)[C@@H]2O)c1)NCC(=O)Nc1cc(C(=O)NCCOCCOCCO[C@H]2O[C@H](CO)[C@@H](O)[C@H](O)[C@@H]2O)cc(C(=O)NCCOCCOCCO[C@H]2O[C@H](CO)[C@@H](O)[C@H](O)[C@@H]2O)c1 [Compound 38]
binding to M1 macrophages, tetra-, hexa- and octa-valent compared [2]: did not show additional benefit

O=C(CCCC[C@@H]1SC[C@@H]2NC(=O)N[C@@H]21)NCCCCCCOC1O[C@H](CO)[C@@H](O)[C@H](O)[C@@H]1O (stereo partly shown) [Compound 39]
mannose ligand conjugated fluorescence (ligand binding) [1]: Dose dependent increase | mannose ligand conjugated fluorescence (ligand binding) ([2]; FIG. 2): Dose dependent increase

O=C[C@H](O)[C@@H](O)[C@@H](O)[C@H](O)CO [D-Galactose]
competitive inhibition of uptake of Cy3-tetra-mannose-siCD45 (M1 macrophages): no competitive binding effect

O=C[C@@H](O)[C@@H](O)[C@H](O)[C@H](O)CO [D-mannose]
competitive inhibition of uptake of Cy3-tetra-mannose-siCD45 (M1 macrophages): substantially inhibited the uptake
